Source: article PMC3056285 (Bioorganic & medicinal chemistry, 2011)

Columns and labels:
[1] = test system: PDE10A; experiment: MicroPET imaging studies in rhesus monkeys; assay type: in vivo; conditions: male rhesus monkeys
[2] = Biodistribution of [^11C]MP-10 in rats; assay type: in vivo, Sprague-Dawley rats; conditions: male rats, tail vein injection
[3] = In vivo metabolite analysis in rat plasma; parameters: species or system Sprague-Dawley rats; conditions: HPLC radioactivity
[4] = In vivo metabolite analysis in rat brain; parameters: species or system Sprague-Dawley rats; conditions: HPLC radioactivity
[5] = 2 min post injection of [^11C]MP-10
[6] = 20 min post injection of [^11C]MP-10
[7] = 40 min post injection of [^11C]MP-10
[8] = 60 min post injection of [^11C]MP-10

In the case of `[11CH3]n1cc(-c2ccncc2)c(-c2ccc(OCc3ccc4ccccc4n3)cc2)n1` [[^11C]MP-10, 2-((4-(1-[^11C]methyl-4-(pyridin-4-yl)-1H-pyrazol-3-yl)phenoxy)methyl)-quinoline], the “blood brain barrier penetration” value [1] is reported as “can readily penetrate the blood brain barrier”, the “Biodistribution Blood” value ([2]; 5 min) is reported as 0.123 ± 0.033 ID%/gram and the “Biodistribution Cerebellum” value ([2]; 5 min) is reported as 0.133 ± 0.023 ID%/gram. The “Biodistribution Cortex” value ([2]; 5 min) was 0.133 ± 0.025 ID%/gram, the “Biodistribution Fat” value ([2]; 5 min) was 0.124 ± 0.059 ID%/gram and the “Biodistribution Heart” value ([2]; 5 min) was 0.264 ± 0.080 ID%/gram. For the same compound, the “Biodistribution Hippocampus” value ([2]; 5 min) was 0.169 ± 0.049 ID%/gram, the “Biodistribution Liver” value ([2]; 5 min) was 2.766 ± 0.350 ID%/gram and the “Biodistribution Lung” value ([2]; 5 min) was 0.317 ± 0.037 ID%/gram. The “Biodistribution Muscle” value ([2]; 5 min) was 0.093 ± 0.021 ID%/gram, the “Biodistribution Striatum” value ([2]; 5 min) was 0.300 ± 0.094 ID%/gram and the “Biodistribution Testes” value ([2]; 5 min) was 0.160 ± 0.048 ID%/gram. For the same compound, the “Biodistribution Total brain” value ([2]; 5 min) was 0.162 ± 0.025 ID%/gram, the “Biodistribution Blood” value ([2]; 30 min) was 0.065 ± 0.016 ID%/gram and the “Biodistribution Cerebellum” value ([2]; 30 min) was 0.036 ± 0.003 ID%/gram. The “Biodistribution Cortex” value ([2]; 30 min) was 0.044 ± 0.009 ID%/gram, the “Biodistribution Fat” value ([2]; 30 min) was 0.075 ± 0.020 ID%/gram and the “Biodistribution Heart” value ([2]; 30 min) was 0.102 ± 0.041 ID%/gram. The “Biodistribution Hippocampus” value ([2]; 30 min) was 0.050 ± 0.010 ID%/gram, the “Biodistribution Kidney” value ([2]; 30 min) was 0.366 ± 0.075 ID%/gram and the “Biodistribution Liver” value ([2]; 30 min) was 3.395 ± 0.448 ID%/gram. The “Biodistribution Lung” value ([2]; 30 min) was 0.155 ± 0.053 ID%/gram, the “Biodistribution Muscle” value ([2]; 30 min) was 0.059 ± 0.010 ID%/gram and the “Biodistribution Striatum” value ([2]; 30 min) was 0.236 ± 0.035 ID%/gram. The “Biodistribution Testes” value ([2]; 30 min) was 0.098 ± 0.006 ID%/gram, the “Biodistribution Total brain” value ([2]; 30 min) was 0.066 ± 0.008 ID%/gram and the “Biodistribution Blood” value ([2]; 60 min) was 0.047 ± 0.012 ID%/gram. The “Biodistribution Cerebellum” value ([2]; 60 min) was 0.035 ± 0.003 ID%/gram, the “Biodistribution Cortex” value ([2]; 60 min) was 0.044 ± 0.014 ID%/gram and the “Biodistribution Fat” value ([2]; 60 min) was 0.100 ± 0.013 ID%/gram. The “Biodistribution Heart” value ([2]; 60 min) was 0.068 ± 0.023 ID%/gram, the “Biodistribution Hippocampus” value ([2]; 60 min) was 0.051 ± 0.009 ID%/gram and the “Biodistribution Kidney” value ([2]; 60 min) was 0.314 ± 0.060 ID%/gram. For the same compound, the “Biodistribution Liver” value ([2]; 60 min) was 3.364 ± 0.613 ID%/gram, the “Biodistribution Lung” value ([2]; 60 min) was 0.090 ± 0.012 ID%/gram and the “Biodistribution Muscle” value ([2]; 60 min) was 0.039 ± 0.011 ID%/gram. The “Biodistribution Striatum” value ([2]; 60 min) was 0.164 ± 0.036 ID%/gram, the “Biodistribution Testes” value ([2]; 60 min) was 0.068 ± 0.021 ID%/gram and the “Biodistribution Total brain” value ([2]; 60 min) was 0.056 ± 0.006 ID%/gram.
In the case of `[11CH3]n1cc(-c2ccncc2)c(-c2ccc(O)cc2)n1` [metabolite #1, 4-(1-[^11C]methyl-4-(pyridin-4-yl)-1H-pyrazol-3-yl)phenol], the “% Peak #1, Plasma” value [3, 5] is reported as 1.23%, the “% Peak #1, Plasma” value [3, 6] is reported as 19.13% and the “% Peak #1, Plasma” value [3, 7] is reported as 35.19%. The “% Peak #1, Plasma” value [3, 8] was 40.72%, the “% Peak #1, Brain Tissue” value [4, 5] was 1.03% and the “% Peak #1, Brain Tissue” value [4, 6] was 3.45%. For the same compound, the “% Peak #1, Brain Tissue” value [4, 7] was 11.47% and the “% Peak #1, Brain Tissue” value [4, 8] was 15.87%.
